This assay deals with Human immunodeficiency virus type 1 reverse transcriptase (Human immunodeficiency virus 1, UniProt Q72547). The assay can be described thus: Inhibitory activity against HIV-1 reverse transcriptase.

Consider 2 compounds from ChEMBL document CHEMBL1129549, “Complexes of HIV-1 reverse transcriptase with inhibitors of the HEPT series reveal conformational changes relevant to the design of potent non-nucleoside inhibitors” (J Med Chem, 1996).

As to `CC(C)c1c(Cc2ccccc2)n(COCc2ccccc2)c(=O)[nH]c1=O`, the IC50 was found to be 0.006 µM.

`Cc1c(Sc2ccccc2)n(COCCO)c(=O)[nH]c1=O` [HEPT] gave a half-maximal inhibitory concentration (IC50) of 17 µM.

A word on the IC50: it is the concentration that gives 50% inhibition. A higher IC50 goes with weaker potency in that assay.
